Results on two molecules are retold here after US20260049084A1, “ENPP1 MODULATORS AND PRODUCTS AND USES THEREOF” (Gossamer Bio Services, Inc., priority 2022, published 2026).

Molecules are shown by their SMILES.

Assay [1] addresses Recombinant human ENPP1 protein (Homo sapiens (Human), UniProt P22413). The assay is described as follows: ENPP1 cGAMP Biochemical Assay. The settings on record: 0.5 nM ENPP1, 1000 nM 2′3′-cGAMP substrate, TR-FRET. Summed up:
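Recombinant human ENPP1 (final 0.5 nM) preincubated with compound 30 min at room temperature in 50 mM Tris pH 7.5, 1 mM TCEP, 2 mM MgCl2, 0.005% Tween20; 2′3′-cGAMP (1000 nM final) added, 60 min at 25 °C. AMP/GMP product detected by TR-FRET antibody/tracer competition (2 nM), 120 min.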

Assay [2] concerns the target Recombinant human ENPP3 protein (Homo sapiens (Human), UniProt O14638). In words: ENPP3 cGAMP Biochemical Assay. The note with it: 70.5 nM ENPP3, 120 μM 2′3′-cGAMP substrate, TR-FRET. A digest of the protocol:
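Compound was preincubated 30 min at room temperature with recombinant human ENPP3 (final 70.5 nM) in Tris pH 7.5 with Mg, Ca, Zn and TCEP. 2′3′-cGAMP (120 μM final) was then hydrolysed for 60 min at 25 °C. AMP/GMP product was detected by TR-FRET tracer-displacement immunoassay after 120 min.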

The target of assay [3] is carbonic anhydrase I enzyme (Homo sapiens (Human), UniProt P00915). The assay is described as follows: Carbonic Anhydrase 1 Enzymatic Assay. In kind it is biochemical. The note with it: enzyme from human erythrocyte, 500 μM 4-nitrophenyl acetate, absorbance 400 nm; read-out: CA I IC50. As to the method:
Carbonic Anhydrase 1 Enzymatic Assay
Test compound and/or vehicle was preincubated with carbonic anhydrase I enzyme (15 μg/ml) isolated from human erythrocyte in reaction buffer (50 mM MOPS solution pH 7.5) for 15 minutes at 25° C. The reaction was initiated by addition of 500 μM 4-nitrophenyl acetate and incubated for 30 minutes. The plate was read on a spectrophotometer (Absorbance: 400 nm)

Assay [4] concerns the target carbonic anhydrase II enzyme (Homo sapiens (Human), UniProt P00918). In words: Carbonic Anhydrase 2 Enzymatic Assay. In kind it is biochemical. The note with it: enzyme from human erythrocyte, 500 μM 4-nitrophenyl acetate, absorbance 400 nm; read-out: CA II IC50. The procedure:
Carbonic Anhydrase 2 Enzymatic Assay
Test compound and/or vehicle was preincubated with carbonic anhydrase II enzyme (15 μg/ml) isolated from human erythrocyte in reaction buffer (50 mM MOPS solution pH 7.5) for 15 minutes at 25° C. The reaction was initiated by addition of 500 μM 4-nitrophenyl acetate and incubated for 30 minutes. The plate was read on a spectrophotometer (Absorbance: 400 nm)

carbonic anhydrase I enzyme, sequence (P00915 whole entry): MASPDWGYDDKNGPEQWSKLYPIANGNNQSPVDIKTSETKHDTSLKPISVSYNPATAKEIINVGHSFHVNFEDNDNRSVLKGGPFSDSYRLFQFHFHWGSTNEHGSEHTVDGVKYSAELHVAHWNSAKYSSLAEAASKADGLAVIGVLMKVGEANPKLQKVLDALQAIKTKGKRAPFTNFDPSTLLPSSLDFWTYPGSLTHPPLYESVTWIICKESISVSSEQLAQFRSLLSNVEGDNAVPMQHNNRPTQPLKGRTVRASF
Recombinant human ENPP3 protein, sequence (O14638 whole entry): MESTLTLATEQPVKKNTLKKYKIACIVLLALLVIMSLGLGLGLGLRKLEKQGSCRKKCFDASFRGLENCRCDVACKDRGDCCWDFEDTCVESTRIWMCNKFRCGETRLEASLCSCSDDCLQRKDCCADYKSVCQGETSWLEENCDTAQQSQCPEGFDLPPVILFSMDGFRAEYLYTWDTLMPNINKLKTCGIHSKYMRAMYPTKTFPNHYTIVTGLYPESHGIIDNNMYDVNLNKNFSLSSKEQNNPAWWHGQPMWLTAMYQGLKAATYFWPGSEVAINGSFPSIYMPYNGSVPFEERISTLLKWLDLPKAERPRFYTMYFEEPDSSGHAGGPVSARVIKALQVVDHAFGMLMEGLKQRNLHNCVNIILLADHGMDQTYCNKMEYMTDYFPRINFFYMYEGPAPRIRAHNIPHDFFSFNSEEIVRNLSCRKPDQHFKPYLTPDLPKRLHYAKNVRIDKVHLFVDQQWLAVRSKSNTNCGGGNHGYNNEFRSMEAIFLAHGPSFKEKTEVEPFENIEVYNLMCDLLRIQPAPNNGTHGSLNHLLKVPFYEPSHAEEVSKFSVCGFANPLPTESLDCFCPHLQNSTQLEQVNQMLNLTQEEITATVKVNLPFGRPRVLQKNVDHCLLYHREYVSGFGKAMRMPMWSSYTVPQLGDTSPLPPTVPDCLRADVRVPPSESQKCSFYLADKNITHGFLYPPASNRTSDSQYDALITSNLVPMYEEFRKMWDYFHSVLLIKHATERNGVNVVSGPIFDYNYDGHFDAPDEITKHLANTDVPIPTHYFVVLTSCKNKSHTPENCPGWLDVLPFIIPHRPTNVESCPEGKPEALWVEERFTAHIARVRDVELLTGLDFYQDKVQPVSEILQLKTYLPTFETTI
Recombinant human ENPP1 protein, sequence (P22413 whole entry): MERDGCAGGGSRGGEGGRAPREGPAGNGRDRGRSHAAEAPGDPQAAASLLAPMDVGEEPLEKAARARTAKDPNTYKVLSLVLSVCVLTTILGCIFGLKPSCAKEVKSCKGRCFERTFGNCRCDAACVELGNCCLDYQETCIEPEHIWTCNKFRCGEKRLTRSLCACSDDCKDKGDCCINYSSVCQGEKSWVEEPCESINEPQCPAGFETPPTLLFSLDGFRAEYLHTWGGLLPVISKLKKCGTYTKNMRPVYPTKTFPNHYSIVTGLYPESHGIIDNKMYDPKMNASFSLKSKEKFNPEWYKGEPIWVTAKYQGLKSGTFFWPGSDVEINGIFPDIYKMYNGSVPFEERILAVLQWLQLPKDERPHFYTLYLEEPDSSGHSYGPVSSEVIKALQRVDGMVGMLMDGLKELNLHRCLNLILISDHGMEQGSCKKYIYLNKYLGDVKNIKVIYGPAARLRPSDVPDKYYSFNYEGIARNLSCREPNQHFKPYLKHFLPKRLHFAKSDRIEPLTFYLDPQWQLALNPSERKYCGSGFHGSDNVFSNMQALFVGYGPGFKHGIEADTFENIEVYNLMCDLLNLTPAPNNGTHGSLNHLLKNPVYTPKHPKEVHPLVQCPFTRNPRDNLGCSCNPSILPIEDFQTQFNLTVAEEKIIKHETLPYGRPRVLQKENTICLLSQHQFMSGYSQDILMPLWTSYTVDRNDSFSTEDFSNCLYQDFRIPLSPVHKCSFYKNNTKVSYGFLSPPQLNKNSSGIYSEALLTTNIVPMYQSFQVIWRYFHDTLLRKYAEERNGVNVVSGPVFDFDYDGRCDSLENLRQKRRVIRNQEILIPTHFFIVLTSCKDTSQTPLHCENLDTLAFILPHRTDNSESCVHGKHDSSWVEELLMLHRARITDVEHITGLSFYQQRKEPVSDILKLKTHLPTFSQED

With `CN=[S@@](N)(=O)N1CCC(CNc2ccnc3c2c(Cl)nn3CC#N)CC1` [Compound 15H, (R)-4-(((3-chloro-1-(cyanomethyl)-1H-pyrazolo[3,4-b]pyridin-4-yl)amino)methyl)-N′-methylpiperidine-1-sulfonimidamide], the half-inhibitory concentration (IC50) is less than 10 nM in assay [1], 100 to 1000 nM in assay [2], no less than 1000 nM in assay [3] and no less than 1000 nM in assay [4].

Regarding `CCn1ncc2c(NCc3ccc(S(N)(=O)=NC)cc3)ccnc21` (centres unmarked) [Compound 3A, 4-(((1-ethyl-1H-pyrazolo[3,4-b]pyridin-4-yl)amino)methyl)-N′-methylbenzenesulfonimidamide], the IC50 in assay [1] is 100 to 1000 nM; in assay [2] it was no less than 1000 nM; in assay [3] it was no less than 1000 nM; in assay [4] it was no less than 1000 nM.
